The values that follow are results of earlier work, collected in US12594238B2, “Low hygroscopicity active powder compositions” (PHILIP MORRIS PRODUCTS S.A., priority 2020, dated 2026).

The conditions of the data set: at 25° C.

Consider `OC[C@H]1O[C@H](O[C@H]2O[C@H](CO)[C@@H](O)[C@H](O)[C@H]2O)[C@H](O)[C@@H](O)[C@@H]1O` [trehalose], for which the solubility was 69 g/100 ml water.
